Reference: patent US20220256890A1, “ANIMAL FEED SUPPLEMENT AND ANIMAL FEED COMPOSITION” (MOOTRAL INNOVATIONS LIMITED, priority 2019, published 2022)

Tested on: rumen inoculum
Test: in vitro incubation of test materials with rumen inoculum, methane measured by micro-gas chromatograph
Assay type: cell-based, dairy cows
Conditions: Example 2, no garlic, 24 hour incubation
Procedure: Rumen inoculum was obtained before the morning feeding from 3 rumen fistulated dairy cows on a diet composed of 50% maize silage and 50% wilted grass silage (on dry matter basis) supplemented with some straw and urea. Additionally, soybean meal and balanced compound feed were administered to fulfil the animals' requirements for milk production. Test materials were incubated in 125-mL flasks containing 25 mL of CO2-saturated bicarbonate/phosphate buffer (containing 3.58 g Na2HPO4.12H2O, 1.55 g KH2PO4, 0.124 g MgCl2.6H2O, 8.74 g NaHCO3 and 1.71 g NH4HCO3 per liter of distilled water) and rumen inoculum, in triplicate per test material (3 biological replicates). A mixture of maize silage (crude protein 65.6 g kg^−1, crude fat 27.9 g kg^−1, crude fibre 145 g kg^−1 and starch 410 g kg DM^−1), grass silage (crude protein 153 g kg^−1, crude fat 28.8 g kg^−1, crude fibre 277 g kg^−1 and sugar 78.5 g kg^−1) and dairy concentrate (crude protein 183 g kg^−1, crude fibre 29 g kg^−1 an sugar 89 g kg^−1) was used as the substrate (30/30/40, DM weight basis, 250 mg flask^−1). The test materials (garlic powder, eugenol, geranyl acetate and coriander oil) were added shortly before the incubation directly into the fluid. All flasks were incubated in a shaking incubator at 39° C. (Edmund Buhler Gmbh, Hechingen, Germany). At the end of the 24 hour incubation, flasks were removed from the incubator and placed in ice water to stop the fermentation. pH, gas pressure and gas composition were measured, and samples were collected for VFA analysis. Different amounts of garlic powder were used providing allicin doses of 0.1 mg, 0.2 mg, 0.4 mg, and 0.8 mg per flask (i.e. 4 mg/l, 8 mg/l, 16 mg/l, and 32 mg/l). A fixed concentration of 500 mg/l (i.e. 12.5 mg/flask) for the other test materials was used. Water was used as a negative control. The amount of methane gas was measured using a micro-gas chromatograph equipped with two gas chromatographic modules and a thermal conductivity detector (3000 micro-GC, Agilent, USA). Ethane (C2H6; 1 mL/flask) was used as internal standard and argon as a carrier gas for both columns. The data obtained with the test materials was normalized to a non-treated control group, i.e. samples receiving the substrate only (negative control). I.e. 100% refers to the value of the negative control. Values below 100% indicate reduction of methane as a result of the additive. Values above 100% indicate an increase in methane production. The synergism between garlic and a component of essential oil was also studied. Synergy was calculated by adding the percentage reduction of methane by garlic alone and eugenol or geranyl acetate alone and then subtracting the percentage reduction of the combination and the component of essential oil. The resulting values were inversed. […] An experiment was conducted to test the dose-dependent effects of the essential oils and the components of the essential oils. The same method and test materials of Example 1 was used in this experiment. Different amounts of garlic powder were used providing allicin doses of 0.1 mg, 0.2 mg, 0.4 mg, and 0.8 mg per flask (i.e. 4 mg/l, 8 mg/l, 16 mg/l, and 32 mg/l). The doses of eugenol, geranyl acetate, coriander oil and bornyl acetate were varied in this experiment whereby 0.25 mg/ml, 0.5 mg/ml, 0.75 mg/ml of test materials was used. Water was used as a negative control. The amount of methane produced for each reaction was measured using the same method as described in Example 1.

[1] = essential oil or component alone 0.25 mg/mL
[2] = essential oil or component alone 0.5 mg/mL
[3] = essential oil or component alone 0.75 mg/mL

SMILES	production of methane [1] [μmol/reaction]	production of methane [2] [μmol/reaction]	production of methane [3] [μmol/reaction]
C=CCc1ccc(O)c(OC)c1 [Eugenol]	388	310	234
CC(=O)OC1CC2CCC1(C)C2(C)C (stereo not drawn) [Bornyl acetate]	422	353	267
CC(=O)OC/C=C(\C)CCC=C(C)C [Geranyl acetate]	436	327	203
